Reference: patent US20180235931A1, “USE OF NEUROKININ-1 ANTAGONISTS AS ANTITUSSIVES” (Menlo Therapeutics Inc., priority 2017, published 2018)

Legend:
[1] = cited from earlier work
[2] = In vitro skin permeation, Franz diffusion cell; type: in vitro ADME; settings: topical formulations B and C on human skin, 37 C, LC-MS/MS
Experimental: In vitro skin permeation of serlopitant in topical formulations A-D was evaluated using a Franz diffusion cell. FIG. 1 illustrates a Franz diffusion cell. A Franz diffusion cell having a circular permeation area of 4.15 cm^2 and a receptor chamber volume of 19 mL was set up with a thermo-regulated outer water jacket to maintain the temperature at 37° C. The receptor chamber was filled with 19 mL 1×PBS (pH 7.5) containing 10% ethanol and 1% Tween® 80.
Human skin was pre-treated to remove all subcutaneous fat and was cleaned with 70% ethanol before use. The skin was visually inspected to ensure that it was free of any surface irregularity or small holes and was equally divided into four pieces. The skin was then mounted onto the receptor chamber with the stratum corneum side facing up. About 100 mg of topical formulation A, B, C or D was applied to the skin (actual weight: A, 103.8 mg; B, 101.3 mg; C, 103.2 mg; and D, 103.8 mg), which was then covered with parafilm to avoid evaporation. […]
All samples were processed by solid-phase extraction (SPE) before LC-MS/MS analysis. […] Serlopitant concentrations in samples resulting from formulations A-D were determined by comparison to the standard. Serlopitant was not detected in samples resulting from topical formulations A and D, as expected. […] After an initial lag, serlopitant was detected by LC-MS/MS in the receptor chamber at 6 hours.

[3] = Solubility test of serlopitant in Franz cell receptor solution; type: physicochemical

time at which serlopitant was detected in the receptor chamber after initial lag [2]	solubility in receptor solution ([3]; 0.5, 5 and 50 ug/mL in 1xPBS (pH 7.5) containing 10% ethanol and 1% Tween 80, 1 hour at 37 C)	solubility if Tween 80 was not used ([3]; receptor solution without Tween 80)	solubility if ethanol was not used ([3]; receptor solution without ethanol)	SMILES	hygroscopicity ([1]; all tested relative humidity conditions)	thermodynamic stability ([1]; below 70 C, Form I vs Form II)
–	–	–	–	C[C@@H](O[C@H]1CC[C@@H]2CN(C3=CC(=O)CC3)C[C@H]2[C@@H]1c1ccc(F)cc1)c1cc(C(F)(F)F)cc(C(F)(F)F)c1 [Form I]	non-hygroscopic	thermodynamically more stable
6 h	remained soluble	decreased significantly	decreased slightly	CC(O[C@H]1CC[C@@H]2CN(C3=CC(=O)CC3)C[C@H]2[C@@H]1c1ccc(F)cc1)c1cc(C(F)(F)F)cc(C(F)(F)F)c1 (stereo partly drawn) [serlopitant]	–	–
